Patent publication US20250066369A1, “BICYCLIC PHTHALAZIN-1(2H)-ONE DERIVATIVES AND RELATED USES” (NodThera Limited, priority 2022, published 2025)

Tested on: IL-1β release upon NLRP3 activation in peripheral blood mononuclear cells (PBMC)
Experiment: PBMC IC50 determination assay: inhibition of IL-1β release upon NLRP3 activation
Type: cell-based
Details: PBMC, PBMC primed with LPS 3 h, compound 30 min, stimulated with ATP (5 mM) or nigericin (10 μM) 1 h; IL-1β by ELISA (Protocol A) or HTRF (Protocol B)
Method: PBMC IC50 determination assay. The compounds of the present disclosure were tested for their inhibitory activity against IL-1β release upon NLRP3 activation in peripheral blood mononuclear cells (PBMC).
Protocol A. PBMC were isolated from buffy coats by density gradient centrifugation on Histopaque-1077 (Sigma, cat no. 10771). Isolated cells were seeded into the wells of a 96-well plate and incubated for 3 h with lipopolysaccharide (LPS). Following medium exchange, the compounds of the present disclosure were added (a single compound per well) and the cells were incubated for 30 min. Next, the cells were stimulated either with ATP (5 mM) or nigericin (10 μM) for 1 h and the cell culture media from the wells were collected for further analysis.
The release of IL-1β into the media was determined by a quantitative detection of IL-1β in the media using an IL-1β enzyme-linked immunosorbent assay (ELISA) Ready-SET-Go!, eBioscience cat. No. 88-7261-88. Briefly, in a first step, high affinity binding plates (Corning, Costar 9018 or NUNC Maxisorp Cat No. 44-2404) were coated overnight at 4° C. with specific capture antibody included in the kit (anti-human IL-1β ref. 14-7018-68). Subsequently, plates were blocked with blocking buffer for 1 h at room temperature (rt) and after washing with a buffer (PBS with 0.05% Tween-20) incubated with protein standard and culture media. After 2 h of incubation at rt, plates were washed and incubated with biotinylated detection antibody included in the kit (anti-human IL-1β Biotin ref 33-7110-68) for 1 h at rt. Plates were washed and incubated with HRP-streptavidin for 30 min at rt and washed again. The signal was developed after addition of 3,3′,5,5′-tetramethylbenzidine-peroxidase (TMB) until colour appeared and the reaction was stopped by 2 M H2SO4. A microplate spectrophotometer (BioTek) was used to detect signals with 450 nm. The detection range of IL-1β ELISA was […].
Protocol B. PBMC were isolated from buffy coats by density gradient centrifugation on Histopaque-1077 (Sigma, cat no. 10771). Isolated cells were seeded into the wells (280,000 cells/well) of a 96-well plate and incubated for 3 h with lipopolysaccharide (LPS, 1 μg/mL diluted 1000× from a 1 mg/mL stock solution). The compounds of the present disclosure were added (a single compound per well) and the cells were incubated for 30 min. Next, the cells were stimulated with ATP (5 mM final concentration diluted 20× from a 100 mM stock solution) for 1 h and the cell culture media from the wells were collected for further analysis.
The release of IL-1β into the media was determined by quantitative detection of IL-1β in the media using HTRF®, CisBio cat. No. 62HIL1BPEH. Briefly, cell culture supernatant were dispensed directly into the assay plate containing antibodies labelled with the HTRF® donor and acceptor. A microplate spectrophotometer (BMG) was used to detect signals at 655 nm and 620 nm. The detection range of IL-1β HTRF® was 39-6500 μg/mL.

| Structure (SMILES) | IC50 [nM] |
| --- | --- |
| CC(C)c1nn(CC(=O)Nc2ncco2)c(=O)c2cc(C3CC3)oc12 [Compound 79, 2-(2-Cyclopropyl-7-isopropyl-4-oxofuro[2,3-d]pyridazin-5(4H)-yl)-N-(oxazol-2-yl)acetamide] | 100 to 1000 |
| CCOC(=O)c1cnc(NC(=O)Cn2nc(C(C)C)c3oc(C4CC4)cc3c2=O)nc1 [Compound 80, Ethyl 2-(2-(2-cyclopropyl-7-isopropyl-4-oxofuro[2,3-d]pyridazin-5(4H)-yl)acetamido)pyrimidine-5-carboxylate] | 100 to 1000 |
| CC(C)c1nn(CC(=O)N[C@H]2C[C@@](C)(O)C2)c(=O)c2cc(C3CC3)oc12 [Compound 81, 2-(2-Cyclopropyl-7-isopropyl-4-oxofuro[2,3-d]pyridazin-5(4H)-yl)-N-((1s,3s)-3-hydroxy-3-methylcyclobutyl)acetamide] | 100 to 1000 |
| Cc1nn(CC(=O)Nc2ncccn2)c(=O)c2cc(C3CC3)oc12 [Compound 82, 2-{2-Cyclopropyl-7-methyl-4-oxo-4H,5H-furo[2,3-d]pyridazin-5-yl}-N-(pyrimidin-2-yl)acetamide] | 100 to 1000 |
| Cc1cnc(NC(=O)Cn2nc(C)c3oc(C4CC4)cc3c2=O)nc1 [Compound 83, 2-{2-Cyclopropyl-7-methyl-4-oxo-4H,5H-furo[2,3-d]pyridazin-5-yl}-N-(5-methylpyrimidin-2-yl)acetamide] | 100 to 1000 |
| Cc1nn(CC(=O)Nc2ncc(Cl)cn2)c(=O)c2cc(C3CC3)oc12 [Compound 84, N-(5-Chloropyrimidin-2-yl)-2-{2-cyclopropyl-7-methyl-4-oxo-4H,5H-furo[2,3-d]pyridazin-5-yl}acetamide] | 100 to 1000 |
| Cc1nn(CC(=O)N[C@H]2C[C@@](C)(O)C2)c(=O)c2cc(C3CC3)oc12 [Compound 85, 2-{2-Cyclopropyl-7-methyl-4-oxo-4H,5H-furo[2,3-d]pyridazin-5-yl}-N-[cis-3-hydroxy-3-methylcyclobutyl]acetamide] | 1000 to 3000 |
| CCOC(=O)c1cnc(NC(=O)Cn2nc(C)c3cc(C4CC4)sc3c2=O)nc1 [Compound 86, Ethyl 2-(2-{2-cyclopropyl-4-methyl-7-oxo-6H,7H-thieno[2,3-d]pyridazin-6-yl}acetamido)pyrimidine-5-carboxylate] | 100 to 1000 |
| Cc1nn(CC(=O)Nc2ncco2)c(=O)c2cc(C3CC3)oc12 [Compound 87, 2-{2-cyclopropyl-7-methyl-4-oxo-4H,5H-furo[2,3-d]pyridazin-5-yl}-N-(1,3-oxazol-2-yl)acetamide] | 1000 to 3000 |
| Cc1nn(CC(=O)Nc2ncccn2)c(=O)c2sc(C3CC3)cc12 [Compound 88, 2-{2-Cyclopropyl-4-methyl-7-oxo-6H,7H-thieno[2,3-d]pyridazin-6-yl}-N-(pyrimidin-2-yl)acetamide] | 100 to 1000 |
| CCc1nn(CC(=O)Nc2ncccn2)c(=O)c2cc(C3CC3)oc12 [Compound 89, 2-{2-cyclopropyl-7-ethyl-4-oxo-4H,5H-furo[2,3-d]pyridazin-5-yl}-N-(pyrimidin-2-yl)acetamide] | 100 to 1000 |
| CCOC(=O)c1cnc(NC(=O)Cn2nc(C)c3oc(C4CC4)cc3c2=O)nc1 [Compound 90, Ethyl 2-(2-{2-cyclopropyl-7-methyl-4-oxo-4H,5H-furo[2,3-d]pyridazin-5-yl}acetamido)pyrimidine-5-carboxylate] | 100 to 1000 |
| Cc1nn(CC(=O)Nc2ncc(C#N)cn2)c(=O)c2cc(C3CC3)oc12 [Compound 91, N-(5-Cyanopyrimidin-2-yl)-2-{2-cyclopropyl-7-methyl-4-oxo-4H,5H-furo[2,3-d]pyridazin-5-yl}acetamide] | 100 to 1000 |
| CCOC(=O)Cc1cnc(NC(=O)Cn2nc(C)c3oc(C4CC4)cc3c2=O)nc1 [Compound 92, Ethyl 2-[2-(2-{2-cyclopropyl-7-methyl-4-oxo-4H,5H-furo[2,3-d]pyridazin-5-yl}acetamido)pyrimidin-5-yl]acetate] | 100 to 1000 |
| CC(C)Nc1cc2c(C(C)C)nn(CC(=O)Nc3ncccn3)c(=O)c2s1 [Compound 93, 2-[7-Oxo-4-(propan-2-yl)-2-[(propan-2-yl)amino]-6H,7H-thieno[2,3-d]pyridazin-6-yl]-N-(pyrimidin-2-yl)acetamide] | 100 to 1000 |
| CNc1cc2c(C(C)C)nn(CC(=O)Nc3ncccn3)c(=O)c2s1 [Compound 94, 2-[2-(Methylamino)-7-oxo-4-(propan-2-yl)-6H,7H-thieno[2,3-d]pyridazin-6-yl]-N-(pyrimidin-2-yl)acetamide] | ≤ 100 |
| CC(C)c1nn(CC(=O)Nc2ncccn2)c(=O)c2sc(NCC(F)F)cc12 [Compound 95, 2-{2-[(2,2-Difluoroethyl)amino]-7-oxo-4-(propan-2-yl)-6H,7H-thieno[2,3-d]pyridazin-6-yl}-N-(pyrimidin-2-yl)acetamide] | 100 to 1000 |
| COCCNc1cc2c(C(C)C)nn(CC(=O)Nc3ncccn3)c(=O)c2s1 [Compound 96, 2-{2-[(2-Methoxyethyl)amino]-7-oxo-4-(propan-2-yl)-6H,7H-thieno[2,3-d]pyridazin-6-yl}-N-(pyrimidin-2-yl)acetamide] | 10000 to 50000 |
| CCN(C)c1cc2c(C(C)C)nn(CC(=O)Nc3ncccn3)c(=O)c2s1 [Compound 97, 2-{2-[Ethyl(methyl)amino]-7-oxo-4-(propan-2-yl)-6H,7H-thieno[2,3-d]pyridazin-6-yl}-N-(pyrimidin-2-yl)acetamide] | 3000 to 10000 |
| CCNc1cc2c(C)nn(CC(=O)Nc3ncccn3)c(=O)c2s1 [Compound 98, 2-[2-(Ethylamino)-4-methyl-7-oxo-6H,7H-thieno[2,3-d]pyridazin-6-yl]-N-(pyrimidin-2-yl)acetamide] | 1000 to 3000 |
| CCCc1cc2c(C(C)C)nn(CC(=O)Nc3ncccn3)c(=O)c2s1 [Compound 99, 2-[7-Oxo-4-(propan-2-yl)-2-propyl-6H,7H-thieno[2,3-d]pyridazin-6-yl]-N-(pyrimidin-2-yl)acetamide] | 100 to 1000 |
| CC(C)c1nn(CC(=O)Nc2ncccn2)c(=O)c2sc(NCC(F)(F)F)cc12 [Compound 100, 2-[7-Oxo-4-(propan-2-yl)-2-[(2,2,2-trifluoroethyl)amino]-6H,7H-thieno[2,3-d]pyridazin-6-yl]-N-(pyrimidin-2-yl)acetamide] | 1000 to 3000 |
| CC(C)c1nn(CC(=O)Nc2ncccn2)c(=O)c2sc(N)cc12 [Compound 101, 2-[2-Amino-7-oxo-4-(propan-2-yl)-6H,7H-thieno[2,3-d]pyridazin-6-yl]-N-(pyrimidin-2-yl)acetamide] | 1000 to 3000 |
| CCNc1cc2c(=O)n(CC(=O)Nc3ncccn3)nc(C(C)C)c2o1 [Compound 102, 2-[2-(Ethylamino)-4-oxo-7-(propan-2-yl)-4H,5H-furo[2,3-d]pyridazin-5-yl]-N-(pyrimidin-2-yl)acetamide] | 100 to 1000 |
| Cc1nn(CC(=O)Nc2ccc3nncn3c2)c(=O)c2cc(C3CC3)oc12 [Compound 103, 2-{2-Cyclopropyl-7-methyl-4-oxo-4H,5H-furo[2,3-d]pyridazin-5-yl}-N-{[1,2,4]triazolo[4,3-a]pyridin-6-yl}acetamide] | 1000 to 3000 |
| CC(C)c1nn(CC(=O)Nc2ccc3nncn3c2)c(=O)c2cc(C3CC3)oc12 [Compound 104, 2-[2-Cyclopropyl-4-oxo-7-(propan-2-yl)-4H,5H-furo[2,3-d]pyridazin-5-yl]-N-{[1,2,4]triazolo[4,3-a]pyridin-6-yl}acetamide] | 100 to 1000 |
| CC(C)c1nn(CC(=O)Nc2ccc3nncn3n2)c(=O)c2cc(C3CC3)oc12 [Compound 105, 2-[2-Cyclopropyl-4-oxo-7-(propan-2-yl)-4H,5H-furo[2,3-d]pyridazin-5-yl]-N-{[1,2,4]triazolo[4,3-b]pyridazin-6-yl}acetamide] | 100 to 1000 |
| Cc1nn(CC(=O)Nc2ccc3nncn3n2)c(=O)c2cc(C3CC3)oc12 [Compound 106, 2-{2-Cyclopropyl-7-methyl-4-oxo-4H,5H-furo[2,3-d]pyridazin-5-yl}-N-{[1,2,4]triazolo[4,3-b]pyridazin-6-yl}acetamide] | 100 to 1000 |
| CCOc1cc2c(C(C)C)nn(CC(=O)Nc3ncccn3)c(=O)c2s1 [Compound 107, 2-[2-Ethoxy-7-oxo-4-(propan-2-yl)-6H,7H-thieno[2,3-d]pyridazin-6-yl]-N-(pyrimidin-2-yl)acetamide] | 1000 to 3000 |
